Measurements as given in publication PMC5679629, “Flavin-containing monooxygenase 3 (FMO3) role in busulphan metabolic pathway” (PLoS ONE, 2017).

Columns and labels:
[1] = molecular target: T1, CYP1A1 (Homo sapiens, UniProt P04798); test: THT disappearance with recombinant cDNA-expressed enzyme microsomes; type: in vitro ADME; conditions: 25μM THT, 35pmol CYP/mL
T1 construct: purchased BD Biosciences; host or cells: baculovirus infected insect cells
T1 sequence (P04798 1-512): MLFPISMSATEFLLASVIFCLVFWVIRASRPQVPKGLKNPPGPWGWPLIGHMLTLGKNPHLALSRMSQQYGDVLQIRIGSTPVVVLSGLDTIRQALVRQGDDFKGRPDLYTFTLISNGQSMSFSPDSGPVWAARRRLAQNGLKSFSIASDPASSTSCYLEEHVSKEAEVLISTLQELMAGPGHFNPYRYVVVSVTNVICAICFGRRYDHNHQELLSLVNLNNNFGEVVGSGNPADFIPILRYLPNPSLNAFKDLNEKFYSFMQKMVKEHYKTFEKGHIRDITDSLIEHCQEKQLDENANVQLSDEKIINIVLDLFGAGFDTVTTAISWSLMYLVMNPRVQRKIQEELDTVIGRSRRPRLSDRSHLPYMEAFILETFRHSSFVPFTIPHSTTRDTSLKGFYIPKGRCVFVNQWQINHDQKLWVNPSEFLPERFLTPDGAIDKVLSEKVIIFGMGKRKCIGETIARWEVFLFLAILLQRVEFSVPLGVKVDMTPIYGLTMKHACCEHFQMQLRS
Description: (§1) To identify the enzymes involved in Bu metabolism, 11 microsomal batches (BD Biosciences, Stockholm, Sweden), each containing a separate cDNA-expressed enzyme, were incubated with 25μM THT. The microsomes contained FMO3, CYP1A1, CYP1A2, CYP2B6, CYP2C8, CYP2C9, CYP2C19, CYP2D6, CYP2E1, CYP3A4 or CYP4A11. Time curves (0, 5, 15, 30 and 60min) were performed at a concentration of 0.35mg protein /mL for FMO3 and 35pmol CYP/mL for the CYP enzymes. The recombinant enzymes were produced from human cDNA expressing each of them using baculovirus expression system. Baculovirus infected insect cells were used to prepare these microsomes.
(§2) Incubations were performed in triplicate and negative controls (excluding NADPH, microsomes, THT or by terminating the incubations before the addition of NADPH) were run in parallel.
(§3) To measure THT and the secondary metabolite, sulfolane, the reactions were terminated by adding dichloromethane. Samples (180μL) were added to 10μM nicotine (20μL, Merck, Hoherbrunn, Germany), used as an internal standard, before extraction. The matrix was extracted by liquid-liquid extraction with dichloromethane (equal volumes, 200μL) after 30 sec of high speed vortexing. After extraction and centrifugation at 16000 g for 10 min, the organic phase was transferred into GC-MS tubes. […] Samples (180μL) were added to 10 μM of 3-methylsulfolane (20μL, TCI, Tokyo, Japan), used as an internal standard. The matrix was lyophilized (< 1 mbar at 40°C under N2 stream) to dryness, the residue was dissolved in 10 μL water and 200 μL of ethyl acetate was added for extraction. Samples were vortexed for 30 sec at high speed and centrifuged at 16000 g for 10 min. The organic phase was transferred to GC-MS tubes.
(§4) Concentrations of THT and its metabolites were measured using GC-MS [18] after validation for use with microsomal incubations according to the international guidelines.

[2] = molecular target: T2, CYP1A2 (Homo sapiens, UniProt P05177); test: as above; type: in vitro ADME; conditions: 25μM THT, 35pmol CYP/mL
T2 construct: purchased BD Biosciences; host or cells: baculovirus infected insect cells
T2 sequence (P05177 1-516): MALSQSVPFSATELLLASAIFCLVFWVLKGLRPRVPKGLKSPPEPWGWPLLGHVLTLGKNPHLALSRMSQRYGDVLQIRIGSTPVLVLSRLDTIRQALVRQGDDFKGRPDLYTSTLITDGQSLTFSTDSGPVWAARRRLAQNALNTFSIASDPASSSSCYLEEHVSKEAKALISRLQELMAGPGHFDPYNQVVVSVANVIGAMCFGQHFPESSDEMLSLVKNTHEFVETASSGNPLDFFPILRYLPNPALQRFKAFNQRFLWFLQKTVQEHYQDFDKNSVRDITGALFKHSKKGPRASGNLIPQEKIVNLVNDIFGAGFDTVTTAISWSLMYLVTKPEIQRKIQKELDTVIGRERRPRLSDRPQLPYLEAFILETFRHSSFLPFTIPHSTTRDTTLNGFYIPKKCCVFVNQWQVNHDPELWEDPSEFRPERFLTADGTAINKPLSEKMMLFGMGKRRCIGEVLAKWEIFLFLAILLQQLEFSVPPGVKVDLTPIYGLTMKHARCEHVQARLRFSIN
Description: as §1, §2, §3, §4

[3] = Busulphan and THT plasma kinetics in a patient treated concomitantly with voriconazole; type: in vivo, human; conditions: Bu 2mg/kg b.i.d. with concomitant voriconazole
Description: In order to confirm the contribution of FMO3 to human Bu kinetics, blood samples were collected (routinely) from a patient who underwent stem cell transplantation and was conditioned according to the hospital transplantation protocol i.e. high dose of Bu (2mg/kg b.i.d.) for four days followed with two days of cyclophosphamide (60mg/kg). […] Voriconazole was administered, according to the hospital clinical protocol, for the treatment of an acute fungal infection.
Samples were taken for therapeutic drug monitoring (TDM) at several time points after the first, third and fifth doses. Blood was collected into EDTA vacutainer tubes, plasma was separated by centrifugation at 1200 g and stored at -20°C until analysis of Bu and THT [18].

[4] = THT kinetics in mice (alone or after PTU pretreatment); type: in vivo, Male C57BL/6N mice; conditions: THT-treated mice (8.8mg/kg i.p.) pretreated with PTU 3mg/kg i.p. for 3 days
Description: Standard laboratory chow and water ad libitum was introduced.
THT was also prepared as a 2mM solution in DMSO and the dose given was equimolar to the Bu treatment (i.e. 100μmol/kg or 8.8 mg/kg). […] At the appropriate time points (10min, 30min, 1h, 2h, 4h, 6h and 8h), mice (three mice at each time point) were anesthetized using 2% isoflurane and the blood samples were collected by heart puncture. Mice were euthanized by cervical dislocation. Plasma was separated and stored at -20°C.
A similar experiment was performed in a second group of mice, after 3 days of i.p. injections with the FMO3-inhibitor, Phenylthiourea (PTU, Sigma-Aldrich, Stockholm, Sweden, S1 Fig). PTU (3mg/kg) was dissolved in DMSO and diluted with physiological NaCl solution and then injected into the mice once daily followed by Bu or THT injections on the 4th day.
Briefly, 500 μL of plasma were diluted with 500 μL of water. Fifty microliters of the internal standard (1,5-bis(methanesulfonoxy)pentane; 38.5 μM) were added, followed by the addition of 1 mL of sodium iodide (8M, Merck, Darmstadt, Germany) and 400μL of n-heptane (Merck, Darmstadt, Germany). […] The organic phase was analyzed by GC-MS [18]. THT was quantified as described previously and the method was validated for use with mouse plasma before measuring both Bu and THT [19, 20].

C1CCSC1 [THT, tetrahydrothiophene]
v0 [1]: 1.68 nmol/min/mL
v0/CYP [1]: 0.05 nmol/min/pmol CYP
v0 [2]: 1.24 nmol/min/mL
v0/CYP [2]: 0.04 nmol/min/pmol CYP
THT concentrations versus Bu alone [3]: higher concentrations than with Bu alone
time at which THT was detected after the first dose of Bu [3]: 1 h
THT concentrations versus THT only [4]: significantly (P<0.05, t-test) higher
